Measured values: publication PMC9116245, “New 1,2,3-triazole linked ciprofloxacin-chalcones induce DNA damage by inhibiting human topoisomerase I& II and tubulin polymerization” (Journal of Enzyme Inhibition and Medicinal Chemistry, 2022)

Key:
Caco-2 = assay: MTT assay; type: cell-based; conditions: Homo sapiens; Caco-2, MTT assay, 24 h incubation
Method: (§1) The proliferation of colorectal cancer cells (HCT116, HT29 and Caco-2) was assessed using MTT assay as previously reported. Cells were treated with increasing concentrations of 1, 5, 10, 20, 40, 80 or 100 µM of CP hybrids 4a-j, doxorubicin, or DMSO. See Supplementary Appendix A.

HCT116 = assay: MTT assay; type: cell-based; conditions: Homo sapiens, HCT-116, 24 h incubation
Method: as §1

HT-29 = assay: MTT assay; type: cell-based; conditions: Homo sapiens; HT-29, MTT assay, 24 h incubation
Method: as §1

polymerised tubulin = assay: Western blot of polymerised tubulin in HCT116 cells; type: cell-based, human; conditions: HCT116, IC50 values of compounds
Method: The process of tubulin polymerisation in the cells is important for the completion of mitosis and is targeted for cancer treatment. It has been reported that the suppression of tubulin polymerisation will arrest the cells at the G2/M and it eventually leads to cell death. To test the tubulin-disruptive effect of the CP hybrids, HCT116 cells were analysed by immunocytochemistry. HCT116 cells were incubated for 36 h with IC50 of the CP hybrids (4a, 4b, 4e, 4i, and 4j), nocodazole (a well-known tubulin polymerisation inhibitor, as a positive control), DMSO or Paclitaxel (a well-known tubulin polymerisation inducer, as a negative control), and tubulin was visualised by immunofluorescence microscopy. An antibody for α-tubulin was used. […] Moreover, a Western blot was performed to verify the tubulin polymerisation inhibition ability of the synthesised compounds (Figure 8(B)). The level of polymerised tubulin was decreased in HCT116 cells treated with IC50 values of CP hybrids 4a, 4b, 4e, 4i, 4j, or nocodazole.
Western blotting analysis for HCT116 cells was performed according to the reported procedure in the literature[77–79] to determine the effects of CP hybrids; 4a, 4b, 4e, 4i, and 4j on the expression of polymerised tubulin, γH2AX, p-ATR, p-CHK1, and p-Cdc25C by using the appropriate antibody. See Supplementary Appendix A.

[1] = system: 59 human cancer cell lines; assay: NCI one-dose screen, whole panel; type: cell-based; conditions: for activity at 10 µM: Homo sapiens, mean over the panel, read-out: Mean Growth Percent
Method: (§2) For screening of anticancer properties, all the developed compounds were chosen by the (NCI) for in-vitro antitumor evaluation. The assay was carried out using 59 human cancer cell lines obtained from nine tumour subpanels (breast, ovarian, melanoma, leukaemia, renal, CNS, lung, prostate, and colon cancer cell lines). Compounds were assessed at a 10 µM concentration. […] Also, hybrids 4a, 4b, 4e, 4i and 4j produced significant anti-proliferative effect in several cancer cells, particularly in leukaemia (RPMI-8226) and colon (HCT116) cells with growth percent of 47.87, −14.59, −24.56, −24.42, −15.84, −9.74, −53.36, −10.26, −31.29, and −39.51%, respectively.
(§3) The method description for NCI anticancer screening is provided in detail in the standard NCI-60 testing protocol.

T-47D = assay: NCI one-dose screen; type: cell-based; conditions: Homo sapiens, T47D, read-out: Growth Percent
Method in brief: (§4)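 Standard NCI-60 single-concentration testing: 10 µM, 59 human cancer cell lines, nine tissue-of-origin subpanels; growth percent reported.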

OVCAR-3 = assay: NCI one-dose screen; type: cell-based; conditions: Homo sapiens; OVCAR-3, 10 µM; read-out: Growth Percent
Method in brief: as §4

OVCAR-4 = assay: NCI one-dose screen; type: cell-based; conditions: Homo sapiens; OVCAR-4, 10 µM; read-out: Growth Percent
Method in brief: as §4

OVCAR-5 = assay: NCI one-dose screen; type: cell-based; conditions: Homo sapiens; OVCAR-5, 10 µM; read-out: Growth Percent
Method in brief: as §4

HL-60(TB) = assay: NCI one-dose screen; type: cell-based; conditions: Homo sapiens, read-out: Growth Percent
A549/ATCC = assay: NCI one-dose screen; type: cell-based; conditions: Homo sapiens, read-out: Growth Percent
Method in brief: as §4

NCI-H226 = assay: NCI one-dose screen; type: cell-based; conditions: Homo sapiens; NCI-H226, 10 µM; read-out: Growth Percent
Method in brief: as §4

HCC-2998 = assay: NCI one-dose screen; type: cell-based; conditions: Homo sapiens; HCC-2998, 10 µM; read-out: Growth Percent
Method in brief: as §4

HS 578T = assay: NCI one-dose screen; type: cell-based; conditions: Homo sapiens, read-out: Growth Percent
Method in brief: as §4

LOX IMVI = assay: NCI one-dose screen; type: cell-based; conditions: Homo sapiens, read-out: Growth Percent
Method in brief: as §4

A498 = assay: NCI one-dose screen; type: cell-based; conditions: Homo sapiens; A498, 10 µM; read-out: Growth Percent
Method in brief: as §4

IGROV1 = assay: NCI one-dose screen; type: cell-based; conditions: Homo sapiens, IGROV-1; IGROV1, 10 µM; read-out: Growth Percent
Method in brief: as §4

SW-620 = assay: NCI one-dose screen; type: cell-based; conditions: Homo sapiens; SW-620, 10 µM; read-out: Growth Percent
Method in brief: as §4

MCF7 = assay: NCI one-dose screen; type: cell-based; conditions: Homo sapiens; MCF7, 10 µM; read-out: Growth Percent
Method in brief: as §4

MDA-MB-435 = assay: NCI one-dose screen; type: cell-based; conditions: Homo sapiens; MDA-MB-435, 10 µM; read-out: Growth Percent
Method in brief: as §4

ACHN = assay: NCI one-dose screen; type: cell-based; conditions: Homo sapiens, read-out: Growth Percent
Method in brief: as §4

MALME-3M = assay: NCI one-dose screen; type: cell-based; conditions: Homo sapiens, read-out: Growth Percent
Method in brief: as §4

CAKI-1 = assay: NCI one-dose screen; type: cell-based; conditions: Homo sapiens; CAKI-1, 10 µM; read-out: Growth Percent
Method in brief: as §4

UACC-257 = assay: NCI one-dose screen; type: cell-based; conditions: Homo sapiens; UACC-257, 10 µM; read-out: Growth Percent
Method in brief: as §4

CCRF-CEM = assay: NCI one-dose screen; type: cell-based; conditions: Homo sapiens, read-out: Growth Percent
Method in brief: as §4

HCT-116 = assay: NCI one-dose screen; type: cell-based, human; conditions: HCT-116, 10 µM; for activity at 10 µM: Homo sapiens, read-out: Growth Percent
Method: as §2, §3

RPMI-8226 = assay: NCI one-dose screen; type: cell-based, human; conditions: RPMI-8226, 10 µM; for activity at 10 µM: Homo sapiens, read-out: Growth Percent
Method: as §2, §3

Row | Compound | IC50 (Caco-2) | IC50 (HCT116) | IC50 (HT-29) | level of polymerised tubulin, Western blot (polymerised tubulin) | activity at 10 µM [1] | activity at 10 µM (T-47D) | activity at 10 µM (OVCAR-3) | activity at 10 µM (OVCAR-4) | activity at 10 µM (OVCAR-5) | activity at 10 µM (HL-60(TB)) | activity at 10 µM (A549/ATCC) | activity at 10 µM (NCI-H226) | activity at 10 µM (HCC-2998) | activity at 10 µM (HS 578T) | activity at 10 µM (LOX IMVI) | activity at 10 µM (A498) | activity at 10 µM (IGROV1) | activity at 10 µM (SW-620) | activity at 10 µM (MCF7) | activity at 10 µM (MDA-MB-435) | also measured
1 | COc1ccc(/C=C/C(=O)c2ccc(-n3cc(CN4CCN(c5cc6c(cc5F)c(=O)c(C(=O)O)cn6C5CC5)CC4)nn3)cc2)cc1OC [Compound 4i, (E)-1-cyclopropyl-7-(4-((1-(4-(3–(3,4-dimethoxyphenyl)acryloyl)phenyl)-1H-1,2,3-triazol-4-yl)methyl)piperazin-1-yl)-6-fluoro-4-oxo-1,4-dihydroquinoline-3-carboxylic acid] | 11.3 ± 2.39 µM | 4.87 ± 0.78 µM | 18.6 ± 3.19 µM | decreased | 59.5% | 78.6% | 39.3% | 88% | 92.1% | 85.9% | 66.1% | 67.3% | 44% | 52.8% | 27.9% | 68.2% | 26.6% | 32.8% | 13.2% | 22.2% | activity at 10 µM (ACHN): 85%; activity at 10 µM (MALME-3M): 66.2%; activity at 10 µM (CAKI-1): 67.8%; activity at 10 µM (UACC-257): 78.7%; activity at 10 µM (CCRF-CEM): 44%; Growth Percent (HCT-116): -31.29%; activity at 10 µM (HCT-116): -31.3%; activity at 10 µM (RPMI-8226): -24.4%; Growth Percent (RPMI-8226): -24.42%
2 | COc1cc(/C=C/C(=O)c2ccc(-n3cc(CN4CCN(c5cc6c(cc5F)c(=O)c(C(=O)O)cn6C5CC5)CC4)nn3)cc2)cc(OC)c1OC [Compound 4j, (E)-1-cyclopropyl-6-fluoro-4-oxo-7–(4-((1–(4-(3-(3,4,5-trimethoxyphenyl)acryloyl)phenyl)-1H-1,2,3-triazol-4-yl)methyl)piperazin-1-yl)-1,4-dihydroquinoline-3-carboxylic acid] | 7.14 ± 2.48 µM | 2.53 ± 0.31 µM | 13.2 ± 2.4 µM | decreased | 33.7% | 28.1% | -16.1% | 73.7% | 72.3% | 45% | 15.7% | 32.4% | -39.7% | 21.5% | -1.51% | 54.4% | -24.8% | 9.41% | 16.1% | 5.4% | Growth Percent ([1]; majority of cancer cell lines, 10 µM): 67.46 to −39.69%; activity at 10 µM (MALME-3M): 57.5%; activity at 10 µM (CAKI-1): 60%; activity at 10 µM (UACC-257): 62%; activity at 10 µM (CCRF-CEM): 3.05%; Growth Percent (HCT-116): -39.51%; activity at 10 µM (HCT-116): -39.5%; activity at 10 µM (RPMI-8226): -15.8%; Growth Percent (RPMI-8226): -15.84%
